Data taken from ChEMBL document CHEMBL3608208, “Synthesis, antibacterial and QSAR evaluation of 5-oxo and 5-thio derivatives of 1,4-disubstituted tetrazoles” (2015).
Values after ≈ are worked out from the molar mass of the structure shown.

Columns and labels:
Type in all cases: functional
Bacillus subtilis = assay: Antimicrobial activity against Bacillus subtilis after 24 hrs by well-diffusion assay
Pseudomonas aeruginosa = assay: Antimicrobial activity against Pseudomonas aeruginosa after 24 hrs by well-diffusion assay
Escherichia coli [1] = assay: Antimicrobial activity against Escherichia coli after 24 hrs by well-diffusion assay
Escherichia coli [2] = assay: Antimicrobial activity against Escherichia coli after 24 hrs by microbroth dilution assay
Streptococcus sp. = assay: Antimicrobial activity against Streptococcus spp. after 24 hrs by well-diffusion assay
Klebsiella pneumoniae = assay: Antimicrobial activity against Klebsiella pneumoniae after 24 hrs by well-diffusion assay
Staphylococcus aureus [3] = assay: Antimicrobial activity against Staphylococcus aureus after 24 hrs by well-diffusion assay
Proteus mirabilis = assay: Antimicrobial activity against Proteus mirabilis after 24 hrs by well-diffusion assay
Staphylococcus aureus [4] = assay: Antimicrobial activity against Staphylococcus aureus after 24 hrs by microbroth dilution assay

SMILES	inhibition zone (IZ) (Bacillus subtilis) [mm]	inhibition zone (IZ) (Pseudomonas aeruginosa) [mm]	inhibition zone (IZ) (Escherichia coli [1]) [mm]	MIC (Escherichia coli [2]) [µg/mL]	inhibition zone (IZ) (Streptococcus sp.) [mm]	inhibition zone (IZ) (Klebsiella pneumoniae) [mm]	inhibition zone (IZ) (Staphylococcus aureus [3]) [mm]	inhibition zone (IZ) (Proteus mirabilis) [mm]	MIC (Staphylococcus aureus [4]) [µg/mL]
Sc1nnnn1-c1ccccc1	16	11	14	1.77 (≈ 9.91 µM)	12	8	18	19	1.76 (≈ 9.9 µM)
c1ccc(CSc2nnnn2-c2ccccc2)cc1	0	0	0		0	0	0	0	
O=c1n(Cc2ccccc2)nnn1-c1ccccc1	0	0	0		0	0	0	7	
O=c1n(CCCCCCn2nnn(-c3ccccc3)c2=O)nnn1-c1ccccc1	0	0	0		0	0	0	0	
c1ccc(-n2nnnc2SCCCCCCSc2nnnn2-c2ccccc2)cc1	0	0	0		0	0	0	0	
CCOC(=O)CSc1nnnn1-c1ccccc1	13	0	0	15.9 (≈ 60 µM)	13	0	9	14	5.29 (≈ 20 µM)
O=C(O)CCC(=O)OCn1nnn(-c2ccccc2)c1=S	12	17	11	1.37 (≈ 4.44 µM)	19	16	24	11	1.37 (≈ 4.44 µM)
O=c1n(CCO)nnn1-c1ccccc1	12	0	11	8 (≈ 38.8 µM)	0	13	0	12	5.29 (≈ 25.7 µM)
CC(=O)OCCn1nnn(-c2ccccc2)c1=O	9	0	12	37 (≈ 149 µM)	0	0	0	15	37 (≈ 149 µM)
O=c1n(CCOCc2ccccc2)nnn1-c1ccccc1	0	0	0		0	0	0	20	
O=c1n(CO)nnn1-c1ccccc1	33	24	30	1.76 (≈ 9.16 µM)	42	22	38	34	0.19 (≈ 0.989 µM)
OCn1nnn(-c2ccccc2)c1=S	30	23	31	0.58 (≈ 2.79 µM)	42	19	32	26	1.76 (≈ 8.45 µM)
CC(=O)OCn1nnn(-c2ccccc2)c1=O	14	0	0	13.9 (≈ 59.3 µM)	10	0	9	11	2.66 (≈ 11.4 µM)
CC(=O)OCn1nnn(-c2ccccc2)c1=S	12	0	0	13.9 (≈ 55.5 µM)	0	0	10	15	4.62 (≈ 18.5 µM)
O=c1[nH]nnn1-c1ccccc1	14	0	10	1.54 (≈ 9.52 µM)	11	9	12	0	1.54 (≈ 9.52 µM)
